# Data from PubChem BioAssay AID1259407 (Chemical Carcinogenesis Research Information System (CCRIS), 2018).
# Calls of active or inactive are those of the source. How the calls were made is not given here.
# Test system: CCRIS mutagenicity, Ames/micronucleus/aberration tests
# Assay: CCRIS mutagenicity studies
# [1] = Test System: AMES SALMONELLA TYPHIMURIUM, Strain/Indicator: TA98, Metabolic Activation: NONE, Method: STANDARD PLATE
# [2] = Test System: AMES SALMONELLA TYPHIMURIUM, Strain/Indicator: TA98, Metabolic Activation: S-9, Method: STANDARD PLATE
# [3] = Test System: AMES SALMONELLA TYPHIMURIUM, Strain/Indicator: TA100, Metabolic Activation: NONE, Method: STANDARD PLATE
# [4] = Test System: AMES SALMONELLA TYPHIMURIUM, Strain/Indicator: TA98, Metabolic Activation: RAT, LIVER, S-9, AROCLOR 1254, Method: STANDARD PLATE
# [5] = Test System: AMES SALMONELLA TYPHIMURIUM, Strain/Indicator: TA100, Metabolic Activation: RAT, LIVER, S-9, AROCLOR 1254, Method: STANDARD PLATE
compound,measurement,setting,value
O=[N+]([O-])c1ccc(Oc2c(Cl)cc(Cl)cc2Cl)cc1,mutagenic call,"Test System: AMES SALMONELLA TYPHIMURIUM, Strain/Indicator: TA98, Metabolic Activation: NONE, Method: PREINCUBATION",inactive; negative
same,mutagenic call,[1],inactive; negative
same,mutagenic call,"Test System: AMES SALMONELLA TYPHIMURIUM, Strain/Indicator: TA98, Metabolic Activation: RAT LIVER S-9 (10%), PHENOBARBITAL AND 5,6-BENZOFLAVONE, Method: PREINCUBATION",inactive; negative
same,mutagenic call,[2],inactive; negative
same,mutagenic call,"Test System: AMES SALMONELLA TYPHIMURIUM, Strain/Indicator: TA100, Metabolic Activation: NONE, Method: PREINCUBATION",inactive; negative
same,mutagenic call,[3],inactive; negative
same,mutagenic call,"Test System: AMES SALMONELLA TYPHIMURIUM, Strain/Indicator: TA100, Metabolic Activation: RAT LIVER S-9 (10%), PHENOBARBITAL AND 5,6-BENZOFLAVONE, Method: PREINCUBATION",inactive; negative
same,mutagenic call,"Test System: AMES SALMONELLA TYPHIMURIUM, Strain/Indicator: TA100, Metabolic Activation: S-9, Method: STANDARD PLATE",inactive; negative
same,mutagenic call,"Test System: AMES SALMONELLA TYPHIMURIUM, Strain/Indicator: YG1021, Metabolic Activation: NONE, Method: STANDARD PLATE",inactive; negative
same,mutagenic call,"Test System: AMES SALMONELLA TYPHIMURIUM, Strain/Indicator: YG1021, Metabolic Activation: RAT LIVER S-9 (10%), PHENOBARBITAL AND 5,6-BENZOFLAVONE, Method: PREINCUBATION",inactive; negative
same,mutagenic call,"Test System: AMES SALMONELLA TYPHIMURIUM, Strain/Indicator: YG1021, Metabolic Activation: RAT, LIVER, S-9, PCB, Method: PREINCUBATION",active; positive
same,mutagenic call,"Test System: AMES SALMONELLA TYPHIMURIUM, Strain/Indicator: YG1021, Metabolic Activation: S-9, Method: STANDARD PLATE",inactive; negative
same,mutagenic call,"Test System: AMES SALMONELLA TYPHIMURIUM, Strain/Indicator: YG1024, Metabolic Activation: NONE, Method: PREINCUBATION",active; positive
same,mutagenic call,"Test System: AMES SALMONELLA TYPHIMURIUM, Strain/Indicator: YG1024, Metabolic Activation: NONE, Method: STANDARD PLATE",inactive; negative
same,mutagenic call,"Test System: AMES SALMONELLA TYPHIMURIUM, Strain/Indicator: YG1024, Metabolic Activation: RAT LIVER S-9 (10%), PHENOBARBITAL AND 5,6-BENZOFLAVONE, Method: PREINCUBATION",active; positive
same,mutagenic call,"Test System: AMES SALMONELLA TYPHIMURIUM, Strain/Indicator: YG1024, Metabolic Activation: RAT, LIVER, S-9, PHENOBARBITAL AND 5,6-BENZOFLAVONE, Method: PREINCUBATION",active; positive
same,mutagenic call,"Test System: AMES SALMONELLA TYPHIMURIUM, Strain/Indicator: YG1024, Metabolic Activation: S-9, Method: STANDARD PLATE",inactive; negative
same,mutagenic call,"Test System: AMES SALMONELLA TYPHIMURIUM, Strain/Indicator: YG1026, Metabolic Activation: NONE, Method: STANDARD PLATE",inactive; negative
same,mutagenic call,"Test System: AMES SALMONELLA TYPHIMURIUM, Strain/Indicator: YG1026, Metabolic Activation: RAT LIVER S-9 (10%), PHENOBARBITAL AND 5,6-BENZOFLAVONE, Method: PREINCUBATION",inactive; negative
same,mutagenic call,"Test System: AMES SALMONELLA TYPHIMURIUM, Strain/Indicator: YG1026, Metabolic Activation: RAT, LIVER, S-9, PCB, Method: PREINCUBATION",active; positive
same,mutagenic call,"Test System: AMES SALMONELLA TYPHIMURIUM, Strain/Indicator: YG1026, Metabolic Activation: S-9, Method: STANDARD PLATE",inactive; negative
same,mutagenic call,"Test System: AMES SALMONELLA TYPHIMURIUM, Strain/Indicator: YG1029, Metabolic Activation: NONE, Method: PREINCUBATION",inactive; negative
same,mutagenic call,"Test System: AMES SALMONELLA TYPHIMURIUM, Strain/Indicator: YG1029, Metabolic Activation: NONE, Method: STANDARD PLATE",active; positive
same,mutagenic call,"Test System: AMES SALMONELLA TYPHIMURIUM, Strain/Indicator: YG1029, Metabolic Activation: RAT LIVER S-9 (10%), PHENOBARBITAL AND 5,6-BENZOFLAVONE, Method: PREINCUBATION",active; positive
same,mutagenic call,"Test System: AMES SALMONELLA TYPHIMURIUM, Strain/Indicator: YG1029, Metabolic Activation: RAT, LIVER, S-9, AROCLOR 1254, Method: STANDARD PLATE",active; positive
same,mutagenic call,"Test System: AMES SALMONELLA TYPHIMURIUM, Strain/Indicator: YG1029, Metabolic Activation: RAT, LIVER, S-9, PHENOBARBITAL AND 5,6-BENZOFLAVONE, Method: PREINCUBATION",active; positive
same,mutagenic call,"Test System: AMES SALMONELLA TYPHIMURIUM, Strain/Indicator: YG1029, Metabolic Activation: S-9, Method: STANDARD PLATE",active; positive
CCOP(=O)(OCC)O/C(=C/Br)c1ccc(Cl)cc1Cl,mutagenic call,[1],inactive; negative
same,mutagenic call,[4],inactive; negative
same,mutagenic call,[3],inactive; negative
same,mutagenic call,[5],inactive; negative
same,mutagenic call,"Test System: AMES SALMONELLA TYPHIMURIUM, Strain/Indicator: TA1535, Metabolic Activation: NONE, Method: STANDARD PLATE",inactive; negative
same,mutagenic call,"Test System: AMES SALMONELLA TYPHIMURIUM, Strain/Indicator: TA1535, Metabolic Activation: RAT, LIVER, S-9, AROCLOR 1254, Method: STANDARD PLATE",inactive; negative
same,mutagenic call,"Test System: AMES SALMONELLA TYPHIMURIUM, Strain/Indicator: TA1537, Metabolic Activation: NONE, Method: STANDARD PLATE",inactive; negative
same,mutagenic call,"Test System: AMES SALMONELLA TYPHIMURIUM, Strain/Indicator: TA1537, Metabolic Activation: RAT, LIVER, S-9, AROCLOR 1254, Method: STANDARD PLATE",inactive; negative
same,mutagenic call,"Test System: AMES SALMONELLA TYPHIMURIUM, Strain/Indicator: TA1538, Metabolic Activation: NONE, Method: STANDARD PLATE",inactive; negative
same,mutagenic call,"Test System: AMES SALMONELLA TYPHIMURIUM, Strain/Indicator: TA1538, Metabolic Activation: RAT, LIVER, S-9, AROCLOR 1254, Method: STANDARD PLATE",inactive; negative
Fc1ccc(Br)cc1,mutagenic call,"Test System: Mouse lymphoma, Strain/Indicator: L5178Y (tk+/tk-), Metabolic Activation: None, Method: Suspension/plate",inconclusive
same,mutagenic call,"Test System: Mouse lymphoma, Strain/Indicator: L5178Y (tk+/tk-), Metabolic Activation: Rat, Liver, S-9, Aroclor 1254, Method: Suspension/plate",inconclusive
Cn1cnc2c(N)ncnc21,mutagenic call,"Test System: AMES SALMONELLA TYPHIMURIUM, Strain/Indicator: TA97, Metabolic Activation: NONE, Method: STANDARD PLATE",inactive; negative
same,mutagenic call,"Test System: AMES SALMONELLA TYPHIMURIUM, Strain/Indicator: TA97, Metabolic Activation: RAT, LIVER, S-9, AROCLOR 1254, Method: STANDARD PLATE",inactive; negative
same,mutagenic call,[1],inactive; negative
same,mutagenic call,[4],active; positive
same,mutagenic call,[3],inactive; negative
same,mutagenic call,[5],inactive; negative
N#C/C(=C/C=C/c1ccccc1)c1ccccc1Cl,mutagenic call,[3],active; positive
Oc1ccccc1-c1nc2ccccc2o1,mutagenic call,[1],inactive; negative
same,mutagenic call,[2],inactive; negative
